Consider three compounds from patent US12162845B1, “3-(4-bromophenyl)-5-((2-isopropyl-5-methylphenoxy)methyl)-1,2,4-oxadiazole as an anti-cancer and antimicrobial compound” (KING FAISAL UNIVERSITY, priority 2023, dated 2024).

What all share (type): cell-based
Assay [1] deals with different microbes. The assay is described as follows: Antimicrobial activity, agar plate disc-diffusion (overall statement). Particulars: against different microbes, result in words. As to the method:
The agar plate disc-diffusion method was applied. Sterilized filter papers (6 mm in diameter) were wetted with 10 μL of a solution of 3-(4-bromophenyl)-5-((2-isopropyl-5-methylphenoxy)methyl)-1,2,4-oxadiazole (3) to be tested, containing 10 mg/mL in DMSO, and the discs were allowed to air dry. The discs were then placed onto the surface of agar plates (nutrient agar for bacteria and Sabouraud's dextrose agar for fungi) seeded with the test organism. Each plate contained 15 mL of the agar medium, previously seeded with 0.2 mL of the broth culture of each organism pregrown for 18 hours. The plates were incubated at 37° C. for 48 h, and 72 h for fungi. The inhibition zones were measured in mm. Discs impregnated with DMSO were used as a control, and its inhibition zone was subtracted from the tested compound actual inhibition zone.

Assay [2] concerns Aspergillus flavus. The assay is described as follows: Agar plate disc-diffusion, antifungal inhibition zone. Here is the method: (§1) The agar plate disc-diffusion method was applied. […] The discs were then placed onto the surface of agar plates (nutrient agar for bacteria and Sabouraud's dextrose agar for fungi) seeded with the test organism. Each plate contained 15 mL of the agar medium, previously seeded with 0.2 mL of the broth culture of each organism pregrown for 18 hours. The plates were incubated at 37° C. for 48 h, and 72 h for fungi. The inhibition zones were measured in mm. Discs impregnated with DMSO were used as a control, and its inhibition zone was subtracted from the tested compound actual inhibition zone.

The subject of assay [3] is Chrysosporium keratinophilum. The description is as above. As to the method: as §1
Assay [4] has as its system Pseudomonas aeruginosa. As to the kind of experiment: Agar plate disc-diffusion, antibacterial inhibition zone. As to the method:
as §1

Assay [5] has as its system Staphylococcus aureus. The description is as above. As to the method:
as §1

Assay [6] has as its system Bacillus Cereus. The description is as above. Here is the method: as §1
In assay [7] the test system is Escherichia coli. The description is as above. Here is the method:
as §1

Assay [8] concerns human osteosarcoma cells (MG-63). As to the kind of experiment: Cytotoxicity by SRB assay. The note with it: MG-63 cells, 0.01 μM to 100 μM for 72 h, result in words. An excerpt: (§2) The anticancer activity of the described synthesized compounds against highly aggressive androgen-independent metastatic human prostate cancer cells (PC3) and osteosarcoma (MG-63) cells. The human prostate cancer cells (PC3) and human osteosarcoma cells (MG-63) were obtained from Nawah Scientific Inc. (Mokatam, Cairo, Egypt) and cultured in DMEM (Dulbecco's modified eagle's medium), Gibco, USA, supplemented with fetal bovine serum (FBS) at a concentration of 10% and 100 U/mL of penicillin and streptomycin (PS). The Cells were incubated at 37° C. in a humidified environment that contained 5% CO2.
(§3) Cells were seeded in 96-well plates as aliquots of 100 μL cell suspension and incubated in a complete media for 24 h. afterward, cells were treated with 3-(4-bromophenyl)-5-((2-isopropyl-5-methylphenoxy)methyl)-1,2,4-oxadiazole at diverse concentrations ranging from 0.01 μM to 100 μM for 72 h. Then, cells were fixed at 4° C. for one hour with 150 μL of 10% trichloroacetic acid (TCA). […] Then, 150 μL of Tris pH 10.5 (10 mM) was added, and the absorbance was measured at 540 nm using a BMG LABTECH®-FLUOstar Omega microplate reader (Ortenberg, Germany). Half maximal inhibitory concentrations (IC50) values were calculated for each experiment using GraphPad Prism 6 software. […]
(§4) The inhibition was calculated using the following equation: Inhibition %=100−Average Viability
On the technique in general: The SRB assay estimates cell density from bound dye.

Assay [9] concerns human prostate cancer cells (PC3). The assay is described as follows: Cytotoxicity by SRB assay. The note with it: 0.01 μM to 100 μM for 72 h, result in words.
Text: as §2, §3, §4

Where [10] appears, read: A = concentration of comp. = 10,000 μL.
Setting [11] is: B = concentration of comp. = 30,000 μL.
[12] abbreviates: C = concentration of comp. = 50,000 μL.

Consider `Cc1ccc(C(C)C)c(OCc2nc(-c3ccc(Br)cc3)no2)c1` [compound 3, 3-(4-bromophenyl)-5-((2-isopropyl-5-methylphenoxy)methyl)-1,2,4-oxadiazole], for which the antimicrobial activity entry in assay [1] was “excellent antimicrobial activities”. Further, the inhibition zone is 17 mm in assay [2] (setting [10]); 20 mm in assay [2] (setting [11]); 29 mm in assay [2] (setting [12]); 26 mm in [3] (setting [10]); 28 mm in assay [3] (setting [11]); 48 mm in [3] (setting [12]). Moreover, the inhibition zone amounted to 24 mm in assay [4] (setting [10]); 27 mm in [4] (setting [11]); 39 mm in [4] (setting [12]); 13 mm in [5] (setting [10]); 17 mm in assay [5] (setting [11]); 21 mm in assay [5] (setting [12]). Besides, the inhibition zone in [6] (setting [10]) is reported as 25 mm; in assay [6] (setting [11]), 27 mm; in assay [6] (setting [12]), 42 mm; in assay [7] (setting [10]) it was 28 mm; in [7] (setting [11]) it was 37 mm; in assay [7] (setting [12]) it was 55 mm.
For the compound `O=C(O)c1cn(C2CC2)c2cc(N3CCNCC3)c(F)cc2c1=O` [Cip., ciprofloxacin, reference compound], the inhibition zone in assay [2] (setting [10]) is recorded as 29 mm; in assay [2] (setting [11]), 30 mm; in [2] (setting [12]) it was 42 mm; in assay [3] (setting [10]) it was 29 mm; in [3] (setting [11]) it was 30 mm; in assay [3] (setting [12]) it was 53 mm. Besides, the inhibition zone in [4] (setting [10]) is listed as 29 mm; in assay [4] (setting [11]) it was 30 mm; in assay [4] (setting [12]), 53 mm; in assay [5] (setting [10]), 43 mm; in [5] (setting [11]), 44 mm; in assay [5] (setting [12]), 53 mm. Also, the inhibition zone turned out to be 29 mm in [6] (setting [10]); 30 mm in assay [6] (setting [11]); 42 mm in [6] (setting [12]); 30 mm in assay [7] (setting [10]); 39 mm in assay [7] (setting [11]); 60 mm in assay [7] (setting [12]).
For `Cc1ccc(C(C)C)c(OCc2nc(-c3ccc(Br)cc3)no2)c1` [3-(4-bromophenyl)-5-((2-isopropyl-5-methylphenoxy)methyl)-1,2,4-oxadiazole], the antiproliferative activity result in [8] and in assay [9] was “excellent antiproliferative activities” throughout.
